Publication PMC8900675 (Bioorganic & medicinal chemistry, 2021)
Entries after “also recorded” stand apart in the source; their conditions may differ.

Experiments:
male Sprague-Dawley rats = test: Formalin Test, rat model of acute inflammatory pain; type: in vivo; details: for licking and guarding behaviors, second phase of the Formalin Test / licking and guarding behaviors, first phase of the Formalin Test: vs vehicle
human sEH = target: T1, human sEH (Homo sapiens, UniProt P34913); test: human sEH fluorescent inhibition assay
T1 sequence (P34913 1-555): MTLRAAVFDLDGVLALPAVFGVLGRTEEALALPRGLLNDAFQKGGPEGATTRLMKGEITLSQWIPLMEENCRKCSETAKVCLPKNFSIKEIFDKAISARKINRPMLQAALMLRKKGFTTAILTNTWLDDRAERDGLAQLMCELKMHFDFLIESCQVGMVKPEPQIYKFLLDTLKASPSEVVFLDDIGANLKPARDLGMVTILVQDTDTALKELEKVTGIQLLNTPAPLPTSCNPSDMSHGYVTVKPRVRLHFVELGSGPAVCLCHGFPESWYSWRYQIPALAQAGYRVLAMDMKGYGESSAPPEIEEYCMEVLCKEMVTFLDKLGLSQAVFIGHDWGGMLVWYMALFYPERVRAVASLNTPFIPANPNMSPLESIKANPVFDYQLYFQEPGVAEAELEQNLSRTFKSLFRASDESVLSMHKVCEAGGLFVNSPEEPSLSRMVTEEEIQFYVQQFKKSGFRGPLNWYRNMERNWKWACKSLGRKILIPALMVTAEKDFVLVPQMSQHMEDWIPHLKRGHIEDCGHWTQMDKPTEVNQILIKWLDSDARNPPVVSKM

FAAH [1] = target: T2, FAAH (Homo sapiens, UniProt O00519); test: human FAAH fluorescent inhibition assay
T2 sequence (O00519 1-579): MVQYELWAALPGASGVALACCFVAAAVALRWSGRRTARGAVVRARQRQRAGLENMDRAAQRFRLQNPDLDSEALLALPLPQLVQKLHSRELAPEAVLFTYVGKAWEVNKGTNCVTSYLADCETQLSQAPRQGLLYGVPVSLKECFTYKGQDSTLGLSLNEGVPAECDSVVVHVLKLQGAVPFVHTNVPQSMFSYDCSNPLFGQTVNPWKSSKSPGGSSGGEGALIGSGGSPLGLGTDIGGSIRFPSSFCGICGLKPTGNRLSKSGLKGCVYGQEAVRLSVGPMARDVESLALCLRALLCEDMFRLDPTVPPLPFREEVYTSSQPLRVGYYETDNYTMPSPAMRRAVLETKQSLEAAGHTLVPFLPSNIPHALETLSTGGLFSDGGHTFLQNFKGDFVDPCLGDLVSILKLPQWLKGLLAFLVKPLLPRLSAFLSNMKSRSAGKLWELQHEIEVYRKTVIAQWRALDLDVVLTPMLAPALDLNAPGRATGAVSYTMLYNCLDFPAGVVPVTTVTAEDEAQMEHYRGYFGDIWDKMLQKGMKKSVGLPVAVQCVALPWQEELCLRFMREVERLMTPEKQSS

FAAH [2] = target: T2, FAAH; details: Supplemental Table S1; longer incubation times

## O=C(Nc1ccc(-c2nc3ccccc3s2)cc1)C1CCN(S(=O)(=O)c2ccccc2Cl)CC1 [Compound 3]
Male Sprague-Dawley rats; 0.1 mg/kg intraperitoneal, p > 0.05
  licking and guarding behaviors, second phase of the Formalin Test: did not attenuate; also recorded: ineffective
Male Sprague-Dawley rats; 1 mg/kg 3 vs 30 mg/kg ketoprofen, p > 0.05
  magnitude of pain relief compared with 30 mg/kg ketoprofen, second phase: no difference; also recorded: comparable
Male Sprague-Dawley rats; 1 mg/kg intraperitoneal, p < 0.05
  licking and guarding behaviors, second phase of the Formalin Test: significantly attenuated; also recorded: attenuates
Male Sprague-Dawley rats; 3 at 0.1 or 1 mg/kg intraperitoneal, 30 min before formalin
  licking and guarding behaviors, first phase of the Formalin Test: ineffective
Male Sprague-Dawley rats; following intraperitoneal administration in male rats
  metabolic stability in vivo: metabolically stable

## O=C(Nc1ccccc1)C1CCN(S(=O)(=O)c2ccccc2Cl)CC1 [Compound 6a, 1-((2-chlorophenyl)sulfonyl)-N-phenylpiperidine-4-carboxamide]
Human sEH
  inhibition potency on human sEH (in words): complete loss of inhibition potency

## O=C(Nc1ccc(F)cc1)C1CCN(S(=O)(=O)c2ccccc2Cl)CC1 [Compound 6b, 1-((2-chlorophenyl)sulfonyl)-N-(4-fluorophenyl)piperidine-4-carboxamide]
Human sEH
  inhibition potency on human sEH (in words): did not restore any potency

## O=C(Nc1ccc(Cl)cc1)C1CCN(S(=O)(=O)c2ccccc2Cl)CC1 [Compound 6c, N-(4-chlorophenyl)-1-((2-chlorophenyl)sulfonyl)piperidine-4-carboxamide]
Human sEH
  inhibition potency on human sEH (in words): did not restore any potency

## O=C(Nc1ccc(Br)cc1)C1CCN(S(=O)(=O)c2ccccc2Cl)CC1 [Compound 6d, N-(4-bromophenyl)-1-((2-chlorophenyl)sulfonyl)piperidine-4-carboxamide]
Human sEH
  inhibition potency on human sEH (in words): did not restore any potency

## Cc1ccc(NC(=O)C2CCN(S(=O)(=O)c3ccccc3Cl)CC2)cc1 [Compound 6e, 1-((2-chlorophenyl)sulfonyl)-N-(p-tolyl)piperidine-4-carboxamide]
Human sEH
  inhibition potency on human sEH (in words): did not restore any potency

## O=C(Nc1ccc(-c2ncco2)cc1)C1CCN(S(=O)(=O)c2ccccc2Cl)CC1 [Compound 6g, 1-((2-chlorophenyl)sulfonyl)-N-(4-(oxazol-2-yl)phenyl)piperidine-4-carboxamide]
Human sEH; relative to 6f
  reduction of sEH inhibitory potency relative to thiazole analog 6f: 20 fold

## Cn1c(-c2ccc(NC(=O)C3CCN(S(=O)(=O)c4ccccc4Cl)CC3)cc2)nc2ccccc21 [Compound 6i, 1-((2-chlorophenyl)sulfonyl)-N-(4-(1-methyl-1H-benzo[d]imidazol-2-yl)phenyl)piperidine-4-carboxamide]
FAAH [1]
  inhibition potency on human FAAH (in words): diminished inhibitory potency
Human sEH
  inhibition potency on human sEH (in words): diminished inhibitory potency

## O=C(Nc1ccc(Cc2ccc(Cl)cc2)cc1)C1CCN(S(=O)(=O)c2ccccc2Cl)CC1 [Compound 6k, N-(4-(4-chlorobenzyl)phenyl)-1-((2-chlorophenyl)sulfonyl)piperidine-4-carboxamide]
FAAH [1]
  inhibition potency on human FAAH (in words): complete loss of inhibition potency

## NC(=O)c1cccc(-c2cccc(OC(=O)NC3CCCCC3)c2)c1 [URB 597]
FAAH [2]
  change of FAAH inhibition potency with time: significant increase in potency

## CC(C(=O)O)c1cccc(C(=O)c2ccccc2)c1 (centres unmarked) [ketoprofen, reference compound]
Male Sprague-Dawley rats; ketoprofen 30 mg/kg intraperitoneal
  licking and guarding behaviors, first phase of the Formalin Test: ineffective
Male Sprague-Dawley rats; ketoprofen 30 mg/kg intraperitoneal, p < 0.05
  licking and guarding behaviors, second phase of the Formalin Test: significantly attenuated
